Measurements published in patent US7438926B2, “Methods for inhibiting decrease in transdermal drug flux by inhibition of pathway closure” (Alza Corporation, priority 2000, dated 2008).
Several values for one entry are separate records, joined by “and”; a condition that tells them apart may be missing. Equal entries are not always repeated. Structures can show the parent of a compound that is named as a salt. Ends that are not written are not given here.

Key:
pathway closure = assay: Inhibition of pathway closure by chemicals, methylene blue dye score after microprotrusion array pretreatment; type: in vivo, hairless guinea pigs
Description: Inhibition of pathway collapse by chemical agents was studied following pretreatment of the skin with a microprotrusion array and application of a formulation containing the agent for 24 h. Quantitation was performed by evaluation of dye impregnation of the pathways.
Application of the microprotrusion array was performed with an impact applicator. […] Following application, the stretching tension was released. […] The guinea pig received a second system containing a different formulation on the opposite site. Twenty four hours after application, three systems from each group were removed and residual formulation washed from the skin. The skin was stained with a 1% methylene blue solution. Excess dye was thoroughly removed with 70% isopropyl alcohol pads and a picture of the site was taken. Pictures were scored on a 0 to 5 scale, 5 being the dye uptake obtained immediately following microprotrusion array application and 0 being the dye uptake obtained after 24 h contact with a control formulation. A score of 0.5 or greater was considered significant. Various osmotic agents, anticoagulants, antiinflammatory agents, gelling agents as well as gels of different pH and various additives were tested (Table II).

[1] = Passive intracutaneous delivery of plasmid DNA vaccine with microprotrusion array (skin biopsy, PCR); type: in vivo, hairless guinea pigs; conditions: for Increase in plasmid DNA delivered as compared to the control formulation: at one hour, 3% citric acid trisodium salt or 1% Tween 80 in formulation
Description: Feasibility studies were conducted in hairless guinea pigs (HGPs) to determine whether passive intracutaneous delivery of a plasmid DNA vaccine (pCMV-AYW-HBs-Mkan), which encodes for hepatitis B surface antigen [HBsAg]), could be achieved using Macroflux. […] Application of the microprotrusion array was performed with an impact applicator. The system applied comprised a foam double adhesive ring (diameter 2.5 cm, thickness 0.08 cm) with a 1 cm^2 reservoir in the middle.
One of two configurations of microprotrusion arrays were used. Each configuration has a total surface area of 2 cm^2 and an active total blade surface area of 1 cm^2.
A microprotrusion array of the selected type was adhered to the adhesive foam and covered the bottom of the reservoir (after application, the microprotrusion array is in contact with the skin). Following application, the stretching tension was released and the microprotrusion array was left in situ. […] At 1 hour after application, two systems from each group were removed and residual formulation washed from the skin. The amount of drug penetrated at that time was determined in a 6 mm diameter full thickness skin biopsy taken at the skin site. The biopsy was dissolved in a digestion buffer (sodium dodecyl sulfate/proteinase K) and relevant DNA content was evaluated by polymerase chain (PCR) reaction followed by electrophoresis of the PCR product. A positive control group was included which consisted of 10 μg plasmid DNA injected intradermally. Negative controls consisted of the plasmid DNA applied on the skin without the use of a microprotrusion array. […].

[2] = additive concentration 10%, 24 h, scale 0 to 5, 0.5 or greater significant
[3] = additive concentration 30%, 24 h, scale 0 to 5, 0.5 or greater significant
[4] = additive concentration 50%, 24 h, scale 0 to 5, 0.5 or greater significant
[5] = additive concentration 23%, 24 h, scale 0 to 5, 0.5 or greater significant
[6] = additive concentration 1%, 24 h, scale 0 to 5, 0.5 or greater significant
[7] = 24 h, methylene blue evaluation, Table II
[8] = additive concentration 5%, 24 h, scale 0 to 5, 0.5 or greater significant
[9] = additive concentration 13%, 24 h, scale 0 to 5, 0.5 or greater significant
[10] = additive concentration 11%, 24 h, scale 0 to 5, 0.5 or greater significant
[11] = additive concentration 0.05%, 24 h, scale 0 to 5, 0.5 or greater significant
[12] = additive concentration 2%, 24 h, scale 0 to 5, 0.5 or greater significant
[13] = additive concentration 12%, 24 h, scale 0 to 5, 0.5 or greater significant

Compound: OCCOCCOCCO [Triethylene glycol]
- Score (methylene blue) (pathway closure; [2]): 1.3 ± 0.3
- Score (methylene blue) (pathway closure; [3]): 3.3 ± 0.3
- Score (methylene blue) (pathway closure; [4]): 3.7 ± 0.3

Compound: O=C[C@@H](O)[C@H](O)[C@@H](O)[C@@H](O)CO [L-Glucose]
- Score (methylene blue) (pathway closure; [5]): 3.5 ± 0.3

Compound: Arg-Gly-Asp [reference compound]
- Score (methylene blue) (pathway closure; [6]): 0.7 ± 0.4

Compound: O=C(O)CC(O)(CC(=O)O)C(=O)O [citric acid trisodium salt]
- Comparison between formulation groups ([1]; 1 hour): most efficient formulation
- Increase in plasmid DNA delivered as compared to the control formulation [1]: more than 10 fold

Compound: CCOCCOCCO [Ethoxydiglycol]
- Score (methylene blue) (pathway closure; [4]): 0.5 ± 0.3

Compound: O=C(O)c1ccccc1O [salicylic acid]
- Effect on pathway closure (in words) (pathway closure; [7]): had an effect on pathway closure

Compound: CC(O)C(C)O (stereo not drawn) [2-3 Butane diol]
- Score (methylene blue) (pathway closure; guinea pig, in vivo): 2.2 ± 0.2

Compound: O=C[C@H](O)[C@@H](O)[C@H](O)[C@H](O)C(=O)[O-].[Na+] [Glucuronic acid sodium salt]
- Effect on pathway closure (in words) (pathway closure; [7]): most effective agents
- Score (methylene blue) (pathway closure; [8]): 1.0 ± 0.0
- Score (methylene blue) (pathway closure; [2]): 3.5 ± 0.3
- Score (methylene blue) (pathway closure; [9]): 3.0 ± 0.3

Compound: CC(O)CO (stereo not drawn) [Propylene glycol]
- Score (methylene blue) (pathway closure; [3]): 0.7 ± 0.2
- Score (methylene blue) (pathway closure; [4]): 1.3 ± 0.1
- Score (methylene blue) (pathway closure; additive concentration 70%, 24 h, scale 0 to 5, 0.5 or greater significant): 1.0 ± 0.6

Compound: CCCCCCCC/C=C\CCCCCCCC(=O)OCCOCC(OCCO)C1OCC(OCCO)C1OCCO (stereo not drawn) [Tween 80]
- Increase in plasmid DNA delivered as compared to the control formulation [1]: no significant enhancement

Compound: O=C(O)CN(CCN(CC(=O)O)CC(=O)O)CC(=O)O [EDTA]
- Effect on pathway closure (in words) (pathway closure; guinea pig, in vivo): most effective agents in preventing pathway closure
- Score (methylene blue) (pathway closure; guinea pig, in vivo): 1.3 ± 0.2

Compound: OC[C@H]1O[C@@](CO)(O[C@H]2O[C@H](CO)[C@@H](O)[C@H](O)[C@H]2O)[C@@H](O)[C@@H]1O [Sucrose]
- Score (methylene blue) (pathway closure; [4]): 1.7 ± 0.6

Compound: O=C(O)CC(O)C(=O)O (stereo not drawn) [Malic acid, disodium salt]
- Score (methylene blue) (pathway closure; [10]): 2.1 ± 0.3

Compound: O[C@H]1[C@H](O)[C@@H](O)[C@H](O)[C@@H](O)[C@H]1O [Inositol]
- Score (methylene blue) (pathway closure; [2]): 1.5 ± 0.3

Compound: SIKVAV [reference compound]
- Score (methylene blue) (pathway closure; [11]): 0.5 ± 0.5

Compound: C[S+](C)[O-] [Dimethylsulfoxide]
- Score (methylene blue) (pathway closure; [2]): 1.0 ± 0.0

Compound: CC(C(=O)O)c1cccc(C(=O)c2ccccc2)c1 (stereo not drawn) [Ketoprofen Na, reference compound]
- Effect on pathway closure (in words) (pathway closure; [7]): significant effect
- Score (methylene blue) (pathway closure; [12]): 2.3 ± 0.6

Compound: CC(=O)[O-].[Na+] [Sodium acetate]
- Score (methylene blue) (pathway closure; guinea pig, in vivo): 1.7 ± 0.1

Compound: CC(C)O [Isopropyl alcohol]
- Score (methylene blue) (pathway closure; [3]): 0.2 ± 0.2

Compound: Insulin [reference compound]
- Score (methylene blue) (pathway closure; additive concentration 3 mM, 24 h, scale 0 to 5, 0.5 or greater significant): 0.2 ± 0.2

Compound: PEG-350
- Score (methylene blue) (pathway closure; [4]): 0 ± 0

Compound: CCO [Ethanol]
- Score (methylene blue) (pathway closure; additive concentration 0% (4.3 M), 24 h, scale 0 to 5, 0.5 or greater significant): 0 ± 0

Compound: CCC(O)CO (stereo not drawn) [1-2 Butane diol]
- Score (methylene blue) (pathway closure; guinea pig, in vivo): 2.0 ± 0.8

Compound: [Cl-].[Na+] [NaCl]
- Score (methylene blue) (pathway closure; guinea pig, in vivo): 1.8 ± 0.2

Compound: OC[C@@H](O)[C@@H](O)CO [Erythritol]
- Score (methylene blue) (pathway closure; [3]): 3.3 ± 0.4

Compound: CC(=O)O.N [Ammonium acetate]
- Score (methylene blue) (pathway closure; guinea pig, in vivo): 2.1 ± 0.1

Compound: O=C(O)CO [Glycolic acid, sodium salt]
- Score (methylene blue) (pathway closure; additive concentration 6%, 24 h, scale 0 to 5, 0.5 or greater significant): 1.7 ± 0.1
- Score (methylene blue) (pathway closure; [13]): 2.6 ± 0.1
- Score (methylene blue) (pathway closure; additive concentration 24%, 24 h, scale 0 to 5, 0.5 or greater significant): 2.7 ± 0.1

Compound: O=C[C@H](O)[C@H](O)[C@H](O)CO [Ribose]
- Score (methylene blue) (pathway closure; [4]): 2.3 ± 0.3

Compound: CC(O)CCO (stereo not drawn) [1-3 Butane diol]
- Score (methylene blue) (pathway closure; guinea pig, in vivo): 0.2 ± 0.2

Compound: Laminin
- Score (methylene blue) (pathway closure; [11]): 1.0 ± 0.3

Compound: OCCCCO [1-4 Butane diol]
- Score (methylene blue) (pathway closure; guinea pig, in vivo): 3.0 ± 0.3

Compound: C[C@H]1C[C@H]2[C@@H]3CCC4=CC(=O)C=C[C@]4(C)[C@@]3(F)[C@@H](O)C[C@]2(C)[C@@]1(O)C(=O)COP(=O)([O-])[O-].[Na+].[Na+] [Betamethasone phospate Na, reference compound]
- Effect on pathway closure (in words) (pathway closure; [7]): significant effect
- Score (methylene blue) (pathway closure; [12]): 2.3 ± 0.4

Compound: OCCOCCO [Diethylene glycol]
- Effect on pathway closure (in words) (pathway closure; guinea pig, in vivo): most effective agents
- Score (methylene blue) (pathway closure; guinea pig, in vivo): 3.2 ± 0.2

Compound: Cl.NC(CO)(CO)CO [Tromethamine hydrochloride]
- Effect on pathway closure (in words) (pathway closure; guinea pig, in vivo): most effective agents
- Score (methylene blue) (pathway closure; guinea pig, in vivo, hydrochloride): 3.7 ± 0.3 and 2.3 ± 0.3

Compound: O=C(O)CC(O)(CC(=O)O)C(=O)O [Citric acid disodium salt]
- Score (methylene blue) (pathway closure; additive concentration 0.5%, 24 h, scale 0 to 5, 0.5 or greater significant): 0 ± 0
- Score (methylene blue) (pathway closure; [6]): 0.3 ± 0.2
- Score (methylene blue) (pathway closure; additive concentration 3%, 24 h, scale 0 to 5, 0.5 or greater significant): 1.2 ± 0.2

Compound: [Ca+2].[Cl-].[Cl-] [Calcium chloride]
- Score (methylene blue) (pathway closure; guinea pig, in vivo): 0.7 ± 0.4

Compound: CCCCCCCCCCCCCCCC[n+]1ccccc1 [Cetyl pyridinium chloride]
- Score (methylene blue) (pathway closure; guinea pig, in vivo): 0 ± 0

Compound: Cl.N[C@H]1C(O)O[C@H](CO)[C@H](O)[C@@H]1O (stereo partly drawn) [Galactosamine hydrochloride]
- Score (methylene blue) (pathway closure; [4]): 2.8 ± 0.3

Compound: O=C(O)C(O)C(O)C(=O)O (stereo not drawn) [Tartaric acid, disodium salt]
- Score (methylene blue) (pathway closure; [13]): 1.5 ± 0.4

Compound: O=C([O-])[C@H](O)[C@@H](O)[C@H](O)[C@H](O)CO.[Na+] [Gluconic acid sodium salt]
- Score (methylene blue) (pathway closure; [2]): 2.7 ± 0.2
- Score (methylene blue) (pathway closure; [9]): 3.3 ± 0.0
- Score (methylene blue) (pathway closure; [3]): 4.5 ± 0.0

Compound: O=C[C@H](O)[C@@H](O)[C@H](O)[C@H](O)CO [D-Glucose]
- Effect on pathway closure (in words) (pathway closure; [7]): most effective agents
- Score (methylene blue) (pathway closure; [8]): 1.5 ± 0.0
- Score (methylene blue) (pathway closure; [10]): 1.8 ± 0.6
- Score (methylene blue) (pathway closure; [5]): 3.5 ± 0.5
- Score (methylene blue) (pathway closure; [4]): 4.0 ± 0.3

Compound: PEG-4
- Score (methylene blue) (pathway closure; [4]): 2 ± 0.6

Compound: PEG-12
- Score (methylene blue) (pathway closure; [4]): 0 ± 0

Compound: OC[C@@H](O)[C@@H](O)[C@@H](O)CO [Adonitol]
- Effect on pathway closure (in words) (pathway closure; [7]): most effective agents
- Score (methylene blue) (pathway closure; [10]): 3.0 ± 0.3
- Score (methylene blue) (pathway closure; [5]): 3.5 ± 0.3
- Score (methylene blue) (pathway closure; [4]): 3.7 ± 0.3

Compound: Heparin [reference compound]
- Score (methylene blue) (pathway closure; [12]): 0.3 ± 0.2

Compound: Cl.N [Ammonium chloride]
- Score (methylene blue) (pathway closure; guinea pig, in vivo): 2.6 ± 0.1

Compound: OC[C@H]1O[C@H](O[C@H]2O[C@H](CO)[C@@H](O)[C@H](O)[C@H]2O)[C@H](O)[C@@H](O)[C@@H]1O [Trehalose]
- Score (methylene blue) (pathway closure; [4]): 1.5 ± 0.0

Compound: Tyr-Ile-Gly-Ser-Arg-NH2 (YIGSR-NH2) [reference compound]
- Score (methylene blue) (pathway closure; [11]): 0.3 ± 0.3

Compound: CCCCCCCCCCCCOS(=O)(=O)[O-].[Na+] [Sodium dodecyl sulfate]
- Score (methylene blue) (pathway closure; additive concentration 0.01%, 24 h, scale 0 to 5, 0.5 or greater significant): 0 ± 0

Compound: OC[C@@H](O)[C@@H](O)[C@H](O)[C@@H](O)CO [Sorbitol]
- Effect on pathway closure (in words) (pathway closure; [7]): most effective agents
- Score (methylene blue) (pathway closure; [10]): 1.3 ± 0.6
- Score (methylene blue) (pathway closure; [5]): 3.3 ± 0.3
- Score (methylene blue) (pathway closure; [4]): 3.3 ± 0.3

Compound: NCC(=O)O [Glycine]
- Score (methylene blue) (pathway closure; additive concentration 9%, 24 h, scale 0 to 5, 0.5 or greater significant): 1.8 ± 0.3

Compound: C=C1[C@@H](C)[C@H]2[C@H](Cc3ccccc3)NC(=O)[C@]23[C@H](OC(C)=O)/C=C/[C@@](C)(O)C(=O)[C@@H](C)C/C=C/[C@H]3[C@@H]1O [Cytochalasin D, reference compound]
- Score (methylene blue) (pathway closure; additive concentration 0.025%, 24 h, scale 0 to 5, 0.5 or greater significant): 1.5 ± 0.0
